Series [1] has as its target hCA IV (Homo sapiens, UniProt P22748). As to the kind of experiment: stopped-flow CO2 hydrase assay, hCA IV.
Excerpt: (§1) An Sx.18Mv-R Applied Photophysics (Oxford, UK) stopped-flow instrument was used to assay the catalytic activity of various CA isozymes for CO2 hydration reaction.[21]
Series [2] concerns the target hCA IX (Homo sapiens, UniProt Q16790). Nature of the series: stopped-flow CO2 hydrase assay, hCA IX. To be noted: for Selectivity index I/IX: ratio KI hCA I / KI hCA IX; for Selectivity index II/IX: ratio KI hCA II / KI hCA IX.
Excerpt: as §1
The target in series [3] is hCA I (Homo sapiens, UniProt P00915). Nature of the series: stopped-flow CO2 hydrase assay, hCA I. Conditions: mean from three assays, stopped-flow technique, errors ± 5–10%.
hCA I, sequence (P00915 whole entry): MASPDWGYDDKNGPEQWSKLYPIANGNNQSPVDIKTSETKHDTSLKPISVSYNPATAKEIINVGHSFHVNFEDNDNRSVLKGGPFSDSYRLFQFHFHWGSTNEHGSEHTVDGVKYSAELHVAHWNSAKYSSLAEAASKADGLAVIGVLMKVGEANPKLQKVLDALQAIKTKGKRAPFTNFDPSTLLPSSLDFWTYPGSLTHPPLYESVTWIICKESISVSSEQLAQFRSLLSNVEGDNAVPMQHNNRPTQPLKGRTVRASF
Excerpt: as §1
The target in series [4] is hCA II (Homo sapiens, UniProt P00918). Nature of the series: stopped-flow CO2 hydrase assay, hCA II.
Excerpt: as §1

hCA IV, sequence (P22748 19-312): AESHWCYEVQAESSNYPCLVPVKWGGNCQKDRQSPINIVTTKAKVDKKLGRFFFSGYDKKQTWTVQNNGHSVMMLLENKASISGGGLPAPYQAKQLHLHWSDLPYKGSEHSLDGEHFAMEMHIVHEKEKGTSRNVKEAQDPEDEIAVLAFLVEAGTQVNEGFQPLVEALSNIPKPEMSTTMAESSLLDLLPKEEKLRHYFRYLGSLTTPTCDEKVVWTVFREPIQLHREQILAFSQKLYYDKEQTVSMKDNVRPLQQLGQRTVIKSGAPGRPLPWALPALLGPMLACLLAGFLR

The Ki is the equilibrium dissociation constant of an inhibitor or competing ligand from its target. High values mean lower affinity, low ones higher affinity. A word on the melting point: it is the temperature, or range, at which the solid turns liquid. The molecule `NS(=O)(=O)c1ccc(-n2nnc(S(=O)(=O)c3ccccc3)c2-c2ccccc2)cc1` [Compound 9a, 4-(5-phenyl-4-(phenylsulphonyl)-1H-1,2,3-triazol-1-yl)benzenesulphonamide] yielded a melting point of 214 to 216 °C. In series [1], this molecule had a Ki of 149 nM. Also, in series [2], the affinity corresponds to a Ki of 21.5 nM, the “Selectivity index I/IX” value is 4.55 and the “Selectivity index II/IX” value stood at 0.45. The affinity in series [3], expressed as Ki, was 97.9 nM. Further, the Ki in series [4] stood at 9.6 nM.

`Cc1ccc(-c2c(S(=O)(=O)c3ccccc3)nnn2-c2ccc(S(N)(=O)=O)cc2)cc1` [Compound 9b, 4-(4-(phenylsulphonyl)-5-(p-tolyl)-1H-1,2,3-triazol-1-yl)benzenesulphonamide] had a melting point of 205 to 207 °C. Besides, the affinity in series [1] corresponds to a Ki of 82.1 nM. In series [2], the affinity corresponds to a Ki of 30.9 nM and the “Selectivity index II/IX” value worked out at 0.25. Besides, the affinity in series [3], expressed as Ki, was 767 nM. In addition, the Ki in series [4] was 7.8 nM.

`NS(=O)(=O)c1ccc(-n2nnc(S(=O)(=O)c3ccccc3)c2-c2ccc(F)cc2)cc1` [Compound 9c, 4-(5-(4-fluorophenyl)-4-(phenylsulphonyl)-1H-1,2,3-triazol-1-yl)benzenesulphonamide] displayed a melting point of 207 to 209 °C. Besides, the Ki in series [1] was 86.1 nM. In series [2], the affinity corresponds to a Ki of 66 nM, the “Selectivity index I/IX” value is on record as 4.00 and the “Selectivity index II/IX” value is 0.10. In series [3], this molecule came in with a Ki of 264 nM. The Ki in series [4] amounted to 6.6 nM.

With `NS(=O)(=O)c1ccc(-n2nnc(S(=O)(=O)c3ccccc3)c2-c2ccc(Cl)cc2)cc1` [Compound 9d, 4-(5-(4-chlorophenyl)-4-(phenylsulphonyl)-1H-1,2,3-triazol-1-yl)benzenesulphonamide], the melting point was in the range of 213 to 215 °C. In series [1], the inhibitory constant (Ki) is 526 nM. Besides, in series [2], the affinity, expressed as Ki, was 25.1 nM; the “selectivity for hCA IX over hCA I” value is on record as “more than 100 fold”; the “Selectivity index I/IX” value came out at 184.42; the “Selectivity index II/IX” value turned out to be 2.26. Further, the Ki in series [3] was found to be 4630 nM. Besides, the Ki in series [4] worked out at 56.7 nM.

In turn, `NS(=O)(=O)c1ccc(-n2nnc(S(=O)(=O)c3ccccc3)c2-c2ccc(Br)cc2)cc1` [Compound 9e, 4-(5-(4-bromophenyl)-4-(phenylsulphonyl)-1H-1,2,3-triazol-1-yl)benzenesulphonamide] registered a melting point of 198 to 200 °C. The molecule further registered a Ki in series [1] of 801 nM. Further, in series [2], affinity was put at a Ki of 30.1 nM, the “selectivity for hCA IX over hCA I” value is “more than 100 fold”, the “Selectivity index I/IX” value was 260.40 and the “Selectivity index II/IX” value was determined as 7.32. This molecule also yielded a Ki in series [3] of 7840 nM. In series [4], this molecule gave a Ki of 220 nM.

On to `NS(=O)(=O)c1ccc(-n2nnc(S(=O)(=O)c3ccccc3)c2-c2cccc(Br)c2)cc1` [Compound 9f, 4-(5-(3-bromophenyl)-4-(phenylsulphonyl)-1H-1,2,3-triazol-1-yl)benzenesulphonamide], for which the melting point was in the range of 282 to 284 °C. This molecule came in with a Ki in series [1] of 94.8 nM. In series [2], affinity was put at a Ki of 27.1 nM, the “Selectivity index I/IX” value is recorded as 16.00 and the “Selectivity index II/IX” value was 0.34. For the same molecule, affinity in series [3] was put at a Ki of 434 nM. Moreover, the Ki in series [4] came to 9.2 nM.

`COc1ccc(-c2c(S(=O)(=O)c3ccccc3)nnn2-c2ccc(S(N)(=O)=O)cc2)cc1` [Compound 9g, 4-(5-(4-methoxyphenyl)-4-(phenylsulphonyl)-1H-1,2,3-triazol-1-yl)benzenesulphonamide] returned a melting point of 235 to 237 °C. This molecule also came in with a Ki in series [1] of 493 nM. Besides, in series [2], the Ki was 24.9 nM, the “selectivity for hCA IX over hCA I” value is “more than 100 fold”, the “Selectivity index I/IX” value was 314.73 and the “Selectivity index II/IX” value is listed as 0.25. In series [3], this molecule showed a Ki of 7840 nM. Further, the Ki in series [4] turned out to be 6.2 nM.

Turning to `COc1ccc(-c2c(S(=O)(=O)c3ccccc3)nnn2-c2ccc(S(N)(=O)=O)cc2)cc1Br` [Compound 9h, 4-(5-(3-bromo-4-methoxyphenyl)-4-(phenylsulphonyl)-1H-1,2,3-triazol-1-yl)benzenesulphonamide], the melting point lay in the range of 210 to 212 °C. Also, in series [1], the Ki is 1210 nM. Besides, in series [2], the affinity, expressed as Ki, was 28.8 nM; the “selectivity for hCA IX over hCA I” value is reported as “more than 100 fold”; the “Selectivity index I/IX” value came to 324.62; the “Selectivity index II/IX” value is listed as 1.30. This molecule also returned a Ki in series [3] of 9350 nM. The molecule further returned a Ki in series [4] of 37.6 nM.

For the molecule `NS(=O)(=O)c1ccc(-n2nnc(S(=O)(=O)c3ccccc3)c2-c2ccc([N+](=O)[O-])cc2)cc1` [Compound 9i, 4-(5-(4-nitrophenyl)-4-(phenylsulphonyl)-1H-1,2,3-triazol-1-yl)benzenesulphonamide], the Ki was 84.7 nM in series [1], 32.4 nM in series [2], 285 nM in series [3] and 4.9 nM in series [4].

Regarding `NS(=O)(=O)c1ccc(-n2nnc(S(=O)(=O)c3ccccc3)c2-c2cccc([N+](=O)[O-])c2)cc1` [Compound 9j, 4-(5-(3-nitrophenyl)-4-(phenylsulphonyl)-1H-1,2,3-triazol-1-yl)benzenesulphonamide], the Ki in series [1] amounted to 89.6 nM; in series [2], 26.3 nM; in series [3], 45.4 nM; in series [4], 6.1 nM.

Regarding `NS(=O)(=O)c1cccc(-n2nnc(S(=O)(=O)c3ccccc3)c2-c2ccc(F)cc2)c1` [Compound 10c, 3-(5-(4-fluorophenyl)-4-(phenylsulphonyl)-1H-1,2,3-triazol-1-yl)benzenesulphonamide], the inhibition constant Ki in series [1] stood at 78.9 nM; in series [2] it was 22.8 nM; in series [3] it was 454 nM; in series [4] it was 119 nM.

As to `COc1ccc(-c2c(S(=O)(=O)c3ccccc3)nnn2-c2cccc(S(N)(=O)=O)c2)cc1` [Compound 10g, 3-(5-(4-methoxyphenyl)-4-(phenylsulphonyl)-1H-1,2,3-triazol-1-yl)benzenesulphonamide], the Ki worked out at 84 nM in series [1], 24.1 nM in series [2], 509 nM in series [3] and 44.3 nM in series [4].

As to `NS(=O)(=O)c1cccc(-n2nnc(S(=O)(=O)c3ccccc3)c2-c2ccc([N+](=O)[O-])cc2)c1` [Compound 10i, 3-(5-(4-nitrophenyl)-4-(phenylsulphonyl)-1H-1,2,3-triazol-1-yl)benzenesulphonamide], the Ki was found to be 64.4 nM in series [1], 27 nM in series [2], 868 nM in series [3] and 35.2 nM in series [4].

`NS(=O)(=O)c1cccc(-n2nnc(S(=O)(=O)c3ccccc3)c2-c2cccc([N+](=O)[O-])c2)c1` [Compound 10j, 3-(5-(3-nitrophenyl)-4-(phenylsulphonyl)-1H-1,2,3-triazol-1-yl)benzenesulphonamide]: the Ki was found to be 1680 nM in series [1], 26.7 nM in series [2], 6900 nM in series [3] and 884 nM in series [4].

For the origin of these results see paper PMC9154810, “Selective inhibition of carbonic anhydrase IX by sulphonylated 1,2,3-triazole incorporated benzenesulphonamides capable of inducing apoptosis” (Journal of Enzyme Inhibition and Medicinal Chemistry, 2022).
